In patent US20080254003A1, “Differentiation of Human Embryonic Stem Cells and Cardiomyocytes and Cardiomyocyte Progenitors Derived Therefrom” (priority 2004, published 2008):

Test system: HESC (hES2) co-cultured with END-2 cells
Test: HESC-END-2 co-culture, scoring of beating areas
Format: cell-based, human
Conditions: 10^−4 M ascorbic acid, serum-free HESC-END-2 co-culture, day 12, 12-well plates, n=6
Procedure: END-2 cells and HESC lines hES2, hES3 and hES4 cells (passage number between 41-84) were cultured as described previously in Reubinoff B E, Pera M F, Fong C Y et al. Embryonic stem cell lines from human blastocysts: somatic differentiation in vitro. Nat Biotechnol 2000; 18:399-404 and Mummery C, Ward-van Oostwaard D, Doevendans P et al. Differentiation of human embryonic stem cells to cardiomyocytes: role of coculture with visceral endoderm-like cells. Circulation 2003; 107:2733-2740. To initiate co-cultures, END-2 cell cultures, treated for 3 hr with mitomycin C (mit.C; 10 μg/ml), replaced mouse embryonic fibroblasts (MEFs) as feeders for hES cells (Mummery et al (2003) and Mummery C L, van Achterberg T A, van den Eijnden-van Raaij A J et al. Visceral-endoderm-like cell lines induce differentiation of murine P19 embryonal carcinoma cells. Differentiation 1991; 46:51-60). As a control HESC were also grown on MEFs for the same period under the same culture conditions. In standard co-cultures, cells were grown in 12-well plates in DMEM containing L-glutamine, insulin-transferrin-selenium, non-essential amino acids, 90 μM β-mercaptoethanol, penicillin/streptomycin, and 20% FCS (Multicell, Wisent Inc, Canada). Co-cultures were then grown for up to 3 weeks and scored for the presence of areas of beating muscle from 5 days onwards. […]

## O=C1O[C@H]([C@@H](O)CO)C(O)=C1O [ascorbic acid]
  increase in the number of beating areas compared to untreated serum-free co-cultures: 40%
